According to patent publication US20250230147A1, “LACTAMS AS CBL-B INHIBITORS” (Genentech, Inc., priority 2021, published 2025):
Structures can show the parent of a compound that is named as a salt.

Tests used:
c-Cbl = c-Cbl (Homo sapiens (Human), UniProt P22681); assay: C-Cbl LCK Ub TR-FRET assay (c-cbl Lck HTRF); format: biochemical; details: for (fold-selectivity): C-cbl Lck HTRF IC50 relative to Cbl-b Lck HTRF IC50
Procedure, shortened: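 After the ubiquitination reaction, detection mixture was added and plates incubated 20 min at room temperature before reading. IC50 values were calculated with wells lacking LCK as the low control and DMSO as the high control.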

Cbl-b = Cbl-b (Homo sapiens (Human), UniProt Q13191); assay: Cbl-b LCK Ub TR-FRET assay (Cbl-b Lck HTRF); format: biochemical
Sequence of Cbl-b (Q13191 40-426): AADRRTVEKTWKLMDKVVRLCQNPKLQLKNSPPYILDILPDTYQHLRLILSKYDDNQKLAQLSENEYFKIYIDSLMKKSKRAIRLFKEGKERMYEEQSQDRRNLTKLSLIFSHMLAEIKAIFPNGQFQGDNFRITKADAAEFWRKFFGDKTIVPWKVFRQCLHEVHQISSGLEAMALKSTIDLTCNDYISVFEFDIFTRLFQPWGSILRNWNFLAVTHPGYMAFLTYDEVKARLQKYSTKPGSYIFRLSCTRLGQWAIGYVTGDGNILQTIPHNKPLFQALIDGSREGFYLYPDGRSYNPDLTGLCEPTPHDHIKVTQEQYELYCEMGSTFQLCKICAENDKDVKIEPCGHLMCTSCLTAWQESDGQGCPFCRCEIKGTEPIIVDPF
Procedure, shortened: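 TR-FRET (340 nm excitation, 615/665 nm emission) read after adding HA-ubiquitin–UBE2D2 thioester, anti-HA-D2 and streptavidin-Eu. Beforehand, compounds incubated 60 min with biotinylated Cbl-b, then 90 min with His-LCK and ATP (1 mM in 2× mix); IC50 from 10 concentrations, DMSO high and no-LCK low controls.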

Sequence of c-Cbl (P22681 47-435): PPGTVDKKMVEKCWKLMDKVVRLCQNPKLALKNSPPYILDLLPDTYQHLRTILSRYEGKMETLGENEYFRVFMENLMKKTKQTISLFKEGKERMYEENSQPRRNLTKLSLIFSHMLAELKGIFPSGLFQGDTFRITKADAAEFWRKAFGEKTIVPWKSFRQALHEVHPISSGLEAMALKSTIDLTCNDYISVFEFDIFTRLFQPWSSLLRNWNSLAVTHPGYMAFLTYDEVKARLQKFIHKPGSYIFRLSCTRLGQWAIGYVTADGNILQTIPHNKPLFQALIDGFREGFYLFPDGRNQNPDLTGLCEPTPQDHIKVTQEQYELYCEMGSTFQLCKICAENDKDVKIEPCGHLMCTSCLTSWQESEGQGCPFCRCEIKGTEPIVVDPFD

Row | IC50 (c-Cbl) | (fold-selectivity) (c-Cbl) | IC50 (Cbl-b) | Compound
1 | 8.6 nM | (0.79x) | 11 nM | CCNc1cc(N2Cc3c(cc(CNC4(C)CCC4)cc3C(F)(F)F)C2=O)cc(C2(Cc3nncn3C)COC2)c1 [Compound 474, 2-(3-(ethylamino)-5-(3-((4-methyl-4H-1,2,4-triazol-3-yl)methyl)oxetan-3-yl)phenyl)-6-(((1-methylcyclobutyl)amino)methyl)-4-(trifluoromethyl)isoindolin-1-one]
2 | 17 nM | (1.1x) | 16 nM | Cn1cnnc1CC1(c2cccc(N3Cc4c(cc(OCc5c[nH]cn5)cc4C(F)(F)F)C3=O)c2)CC(F)(F)C1 [Compound 422, 6-((1H-imidazol-4-yl)methoxy)-2-(3-(3,3-difluoro-1-((4-methyl-4H-1,2,4-triazol-3-yl)methyl)cyclobutyl)phenyl)-4-(trifluoromethyl)isoindolin-1-one]
3 | 5.4 nM | (0.54x) | 10 nM | CCNc1cc(C2(Cc3nncn3C)COC2)cc(N2Cc3c(cc(CNC4(C)CCC4)cc3C(F)(F)F)C2=O)n1 [Compound 290, 2-(6-(ethylamino)-4-(3-((4-methyl-4H-1,2,4-triazol-3-yl)methyl)oxetan-3-yl)pyridin-2-yl)-6-(((1-methylcyclobutyl)amino)methyl)-4-(trifluoromethyl)isoindolin-1-one]
4 | 430 nM | 1.9x | 220 nM | COC1(C)CN(Cc2cc3c(c(C(F)(F)F)c2)CN(c2cccc(C4([C@H](F)c5nncn5C)COC4)c2)C3=O)C1 [Compound 180, (S)-2-(3-(3-(fluoro(4-methyl-4H-1,2,4-triazol-3-yl)methyl)oxetan-3-yl)phenyl)-6-((3-methoxy-3-methylazetidin-1-yl)methyl)-4-(trifluoromethyl)isoindolin-1-one]
5 | 8 nM | (0.80x) | 11 nM | Cn1cnnc1CC1(c2cccc(N3Cc4c(cc(CNC5(C)CCC5)cc4C(F)(F)F)C3=O)c2)CC(F)(F)C1 [Compound 232, 2-(3-(3,3-difluoro-1-((4-methyl-4H-1,2,4-triazol-3-yl)methyl)-cyclobutyl)phenyl)-6-(((1-methylcyclobutyl)amino)methyl)-4-(trifluoromethyl)isoindolin-1-one]

The remaining lines, values behind:

Row | Compound | IC50 (c-Cbl) | (fold-selectivity) (c-Cbl) | IC50 (Cbl-b)
6 | Cn1cnnc1[C@H](F)C1(c2cccc(N3Cc4c(cc(CN5CC[C@H](F)C5)cc4C(F)(F)F)C3=O)c2)COC1 [Compound 82, 2-(3-(3-((R)-fluoro(4-methyl-4H-1,2,4-triazol-3-yl)methyl)oxetan-3-yl)phenyl)-6-(((S)-3-fluoropyrrolidin-1-yl)methyl)-4-(trifluoromethyl)isoindolin-1-one] | 68 nM | 2.4x | 28 nM
7 | CCOc1cc(C2(Cc3nncn3C)CCC2)cc(N2Cc3c(cc(CNC4(C)CCC4)cc3C(F)(F)F)C2=O)n1 [Compound 285, 2-(6-ethoxy-4-(1-((4-methyl-4H-1,2,4-triazol-3-yl)methyl)cyclobutyl)pyridin-2-yl)-6-(((1-methylcyclobutyl)amino)methyl)-4-(trifluoromethyl)isoindolin-1-one] | 5.3 nM | (0.71x) | 8 nM
8 | CC(C)[C@H]1CN(C)CCN1Cc1cc2c(c(C(F)(F)F)c1)CN(c1cccc(C3([C@@H](F)c4nncn4C4CCCCC4)COC3)c1)C2=O [Compound 454, 2-(3-(3-((R)-(4-cyclohexyl-4H-1,2,4-triazol-3-yl)fluoromethyl)oxetan-3-yl)phenyl)-6-(((S)-2-isopropyl-4-methylpiperazin-1-yl)methyl)-4-(trifluoromethyl)isoindolin-1-one] | 6200 nM | (0.57x) | 11000 nM
9 | Cn1cnnc1CC1(c2cccc(N3Cc4c(cc(CNCC5CCOC5)cc4C(F)(F)F)C3=O)c2)CC(F)(F)C1 (centres unmarked) [Compound 358, 2-(3-(3,3-difluoro-1-((4-methyl-4H-1,2,4-triazol-3-yl)methyl)cyclobutyl)phenyl)-6-((((tetrahydrofuran-3-yl)methyl)amino)methyl)-4-(trifluoromethyl)isoindolin-1-one formate] | 15 nM |  | 16 nM
